This is an account of results in publication PMC11089204 (Frontiers in Pharmacology, 2024).

What is called Ki is the equilibrium dissociation constant of an inhibitor or competing ligand from its target. One may read the Cmax as the peak of the concentration-time curve. One may read the Tmax as the time at which the peak concentration occurs. By EC50 is commonly meant the concentration that produces a half-maximal response.

Data set [1] deals with T1, human 5-HT1A receptor (Homo sapiens, UniProt P08908).
T1 sequence (P08908 1-422): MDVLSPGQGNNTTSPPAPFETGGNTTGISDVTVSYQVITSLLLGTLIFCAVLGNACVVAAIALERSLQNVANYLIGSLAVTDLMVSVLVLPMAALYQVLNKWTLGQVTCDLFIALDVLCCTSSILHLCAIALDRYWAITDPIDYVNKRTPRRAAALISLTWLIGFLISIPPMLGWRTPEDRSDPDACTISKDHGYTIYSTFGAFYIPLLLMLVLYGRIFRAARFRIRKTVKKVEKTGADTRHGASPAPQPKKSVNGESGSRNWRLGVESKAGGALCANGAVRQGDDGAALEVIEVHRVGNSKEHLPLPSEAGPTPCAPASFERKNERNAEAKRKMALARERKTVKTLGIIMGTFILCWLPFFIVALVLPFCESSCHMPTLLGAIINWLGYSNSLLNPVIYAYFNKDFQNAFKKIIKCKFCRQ
Nature of the data set: Radioligand receptor binding, 5-HT1A. On the set-up: expressed in transfected cells; host or cells: HEK 293 membrane preparations. Particulars: HEK 293 membranes, [3H]8-OH-DPAT.

Data set [2] can be described thus: Pharmacokinetics and metabolites in mouse plasma after oral psilocybin. The format is in vivo, C57BL/6J mice. As to conditions: for half-life / Cmax / Tmax: male, C57BL/6J, po, n = 5; for half-life: mouse, plasma, 3 mg/kg, read-out: elimination half-life t1/2 (mean ± SD) (converted); for Cmax: read-out: Cmax (mean ± SD); for Tmax: read-out: tmax (mean ± SD). Here is the method: C57BL/6J adult male mice (Janvier, Le Genest-Saint-Isle, France) were maintained in littermate pairs in standard cages (containing sawdust, a sleeping chamber, tissue paper, and a wood stick) with water and pellet food available ad libitium. The colony room was on a reversed light-dark cycle (dark phase 07:00 to 19:00) with temperature at 22°C and humidity at 50–60%. A total of 10 mice were dosed orally with either 3 mg/kg bodyweight psilocybin (n = 5) or saline solution (n = 5). Dosing and blood sampling were conducted between 09:00 and 13:00. The mouse was placed in a plastic restrainer with the tail protruding through a hole in the end of the tube. The tail was immersed in warm water for 1 min for vasodilation and then a small incision was made on the lateral tail surface near the distal tip. 50 μL of blood was massaged gently into an EDTA-coated capillary blood tube (Mircovette, Sarstedt, Nümbrecht, Germany). The first (baseline) blood sample was collected directly before compound administration via oral gavage and the mouse was then returned to the home cage. Further blood samples were collected at 15, 30, 60, and 120 min post-treatment. Each sample was drawn from the same incision site, with mice maintained in the home cage in the intervening periods. The blood samples were stored on ice and centrifuged for 10 min at 780 × g and 4°C. Subsequently, the plasma was transferred into cryotubes (Protein LoBind, Eppendorf) and stored at −80 °C until analysis. All procedures were conducted under a permit for animal experimentation (ZH038/2022) issued by the Veterinary Office Zurich in accordance with the Animal Protection Act (1978) of Switzerland. The use of psilocybin was authorized by the Federal Office of Public Health (FOPH).
Pharmacokinetic parameters were calculated using Phoenix WinNonlin software (version 8.1.0, Certara, Princeton, USA). The elimination half-life (t1/2, min) was assessed as t1/2 = ln(2)/λ, while the elimination constant was calculated by linear regression in the terminal elimination phase. The maximal plasma concentration (Cmax, ng/mL) and the time to reach this concentration (tmax, h) were direct read-outs of the graphical plots.

The target of another data set is T2, recombinant CYP3A4 (Homo sapiens, UniProt P08684).
T2 construct: purchased Corning Life Sciences B.V
Nature of the data set: Incubation with recombinant CYP3A4 enzymes. In kind it is in vitro ADME. Particulars: for formation of metabolite from psilocin: rec. CYP3A4. The method, then: (§1) Corning UltraPool human liver microsomes (HLM) 150 (20 mg/mL), human intestinal microsomes (HIM) pool (10 mg/mL) as well as recombinant human CYP enzymes (with P450 oxidoreductase, OR) including CYP1A2+OR (0.5 nmol), CYP2B6+OR (0.5 nmol), CYP2C8+OR (1.0 nmol), CYP2C9*1+OR (1 nmol), CYP2C19+OR (0.5 nmol), CYP2D6*1+OR (0.5 nmol), CYP2E1+OR + cytochrome b5 (1 nmol), CYP3A4+OR + cytochrome b5 (0.5 nmol), MAO-A (5 mg/mL), MAO-B (5 mg/mL), and UGT1A10 (5 mg/mL) were purchased from Corning Life Sciences B.V (Amsterdam, Netherlands). All microsomes and recombinant enzyme solutions were aliquoted and stored at −80 °C until further use.
(§2) The total volume of the reaction mixture was 500 μL. […] Samples were either directly analyzed by liquid chromatography tandem mass spectrometry (LC-MS/MS) or briefly stored at −20°C until analysis.

The target in data set [3] is T1, human 5-HT1A receptor. As to the kind of experiment: 5-HT activation potency (IP1 accumulation), 5-HT1A. In kind it is cell-based. On the set-up: expressed in transfected cells. Here is the method:
. […] NIH/3T3 cells stably expressing the human 5-HT1A, 5-HT2A, and 5-HT2B receptors were seeded at a density of 3,000 cells (5-HT1A and 5-HT2A) or 4,000 cells (5-HT2B) in 384-well plates using Opti-MEM medium from Gibco (ThermoFisher, Life Technologies, Zug, Switzerland). Subsequently, the test compounds were introduced, and the plates were incubated for 90 min at 37°C, followed by a 60 min incubation with Anti-IP1-Cryptate and IP1-d2 at room temperature. The formation of stimulated IP1 was quantified by homogeneous time-resolved fluorescence (HTRF) measurements using a BioTek Synergy H1 microplate reader (Agilent Technologies, Basel, Switzerland). The obtained raw data for receptor activation were subjected to normalization, wherein the baseline signal was set at 0%, and the maximum signal stimulated by 5-HT at the specific receptor was established as 100%.

Another data set addresses T3, recombinant CYP2D6 (Homo sapiens, UniProt P10635).
T3 construct: purchased Corning Life Sciences B.V
Nature of the data set: Incubation with recombinant CYP2D6 enzymes. The format is in vitro ADME. Here is the method: as §1, §2

The mark [4] stands for this setting: read-out: h5-HT1A Receptor binding Ki ± SD.
Where [5] appears, read: mouse plasma, 3 mg/kg psilocybin p.o.
Setting [6] is: NIH/3T3 cells, IP1 accumulation, read-out: h5-HT1A Activation potency EC50 ± SD.

Where “and” joins values, the source holds several entries; their conditions need not be identical. Equal values may be shown once. Read-outs that look alike come from different tables or passages of the source.

T2 sequence (P08684 2-503 limits assumed): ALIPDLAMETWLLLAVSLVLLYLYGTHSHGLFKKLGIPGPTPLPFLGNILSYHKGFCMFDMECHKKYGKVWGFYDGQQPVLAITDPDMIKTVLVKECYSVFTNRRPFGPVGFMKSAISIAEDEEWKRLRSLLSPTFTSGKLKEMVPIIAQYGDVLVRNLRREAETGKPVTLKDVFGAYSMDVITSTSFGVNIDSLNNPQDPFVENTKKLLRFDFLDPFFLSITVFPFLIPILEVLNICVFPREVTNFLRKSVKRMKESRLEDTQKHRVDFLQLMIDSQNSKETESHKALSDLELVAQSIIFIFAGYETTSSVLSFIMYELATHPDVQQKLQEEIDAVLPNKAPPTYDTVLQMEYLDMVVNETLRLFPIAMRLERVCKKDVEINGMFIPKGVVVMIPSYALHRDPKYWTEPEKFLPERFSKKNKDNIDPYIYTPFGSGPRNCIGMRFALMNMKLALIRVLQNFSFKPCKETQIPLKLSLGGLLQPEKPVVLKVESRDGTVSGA
T3 sequence (P10635 whole entry): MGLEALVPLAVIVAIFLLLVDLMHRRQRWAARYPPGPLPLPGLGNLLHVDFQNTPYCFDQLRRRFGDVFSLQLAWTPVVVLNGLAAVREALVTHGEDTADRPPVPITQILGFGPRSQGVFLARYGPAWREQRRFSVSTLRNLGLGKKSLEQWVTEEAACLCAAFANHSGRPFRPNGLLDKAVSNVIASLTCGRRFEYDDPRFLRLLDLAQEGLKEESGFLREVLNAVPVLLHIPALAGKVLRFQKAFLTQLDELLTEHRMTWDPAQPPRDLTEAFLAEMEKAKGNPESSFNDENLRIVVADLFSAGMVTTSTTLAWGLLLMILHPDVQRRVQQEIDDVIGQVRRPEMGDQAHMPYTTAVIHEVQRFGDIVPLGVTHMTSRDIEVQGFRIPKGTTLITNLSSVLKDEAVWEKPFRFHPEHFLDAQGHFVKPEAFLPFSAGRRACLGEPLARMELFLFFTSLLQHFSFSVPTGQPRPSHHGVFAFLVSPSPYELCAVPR

Take `O=C(O)Cc1c[nH]c2cccc(O)c12` [4-HIAA, 4-hydroxyindole-3-acetic acid]: on human 5-HT1A receptor [1] (setting [4]), the Ki was greater than 10000 nM. Besides, in data set [2] (setting [5]), the half-life was 45 ± 6.6 min, the Cmax was 84.9 ± 17.7 ng/mL and the Tmax is 18 ± 6.6 min. The “concentrations relative to psilocin (lower)” value in data set [2] (mouse plasma) turned out to be 2 fold. In addition, the “elimination half-life in mice relative to humans (shorter)” value in data set [2] (mouse versus human) is given as “more than 2 fold”. Further, the “formation of metabolite from psilocin” value on recombinant CYP3A4 was “neither observed”. In addition, the EC50 on human 5-HT1A receptor [3] (setting [6]) was greater than 10000 nM. Further, the “formation of metabolite from psilocin” value at recombinant CYP2D6 (rec. CYP2D6) is “neither observed”.
For the compound `OCCc1c[nH]c2cccc(O)c12` [4-HTP, 4-hydroxytryptophol], the Ki on human 5-HT1A receptor [1] (setting [4]) was greater than 10000 nM. Also, the “detection in mouse plasma” value in data set [2] (3 mg/kg psilocybin p.o.) is given as “could not be observed”. The “formation of metabolite from psilocin” value on recombinant CYP3A4 and at recombinant CYP2D6 (rec. CYP2D6) was “neither observed” each time. Moreover, the EC50 at human 5-HT1A receptor [3] (setting [6]) is greater than 10000 nM.
Take `CN(C)CCc1c[nH]c2cccc(O)c12` [psilocin, 4-hydroxy-N,N-dimethyltryptamine]: at human 5-HT1A receptor [1] (h5-HT1A Receptor binding Ki ± SD), the inhibition constant (Ki) was < 136 nM and 128 nM. The half-life in data set [2] (setting [5]) is 54.6 ± 6.6 min. Moreover, the Cmax in data set [2] (setting [5]) is 198 ± 28 ng/mL. Also, in data set [2] (setting [5]), the Tmax turned out to be 18 ± 6.6 min. Also, the “decrease of psilocin concentration / psilocin metabolized” value at recombinant CYP3A4 (1,000 nM psilocin, rec. CYP3A4, 240 min) was 40%. Further, the psilocin concentration was determined as 916 ± 145 nM on recombinant CYP3A4 (rec. CYP3A4, t = 0 min); 546 ± 41 nM on recombinant CYP3A4 (rec. CYP3A4, t = 240 min); 973 ± 133 nM at recombinant CYP3A4 (rec. CYP3A4 with ketoconazole, t = 0 min); 720 ± 71 nM at recombinant CYP3A4 (rec. CYP3A4 with ketoconazole, t = 240 min). The psilocin metabolized on recombinant CYP3A4 (rec. CYP3A4 with ketoconazole, 240 min) is 26%; on recombinant CYP2D6 (rec. CYP2D6), roughly 100%. Besides, on human 5-HT1A receptor [3], the EC50 is 1.7 ± 2.4 nM. The “psilocin concentration (mean ± SD)” value at recombinant CYP2D6 (1,000 nM psilocin, rec. CYP2D6, t = 0 min) is 937 ± 145 nM; at recombinant CYP2D6 (1,000 nM psilocin, rec. CYP2D6, t = 240 min), 21.1 ± 14.2 nM; on recombinant CYP2D6 (rec. CYP2D6 with quinidine, t = 0 min), 1,081 ± 241 nM; at recombinant CYP2D6 (rec. CYP2D6 with quinidine, t = 240 min) it was 747 ± 30 nM.
